Results: patent US20150344457A1, “METHODS OF INHIBITING PRMT5” (EPIZYME, INC., priority 2012, published 2015)

Test system: Z-138 cells
Experiment: Z-138 Methylation Assay (In Cell Western for symmetric di-methyl arginine and DNA content)
Type: cell-based
Conditions: Homo sapiens, Table A-2, 96 hours, symmetric di-methyl arginine, read-out: ICW EC50
Excerpt: Z-138 suspension cells were purchased from ATCC (American Type Culture Collection, Manassas, Va.). RPMI/Glutamax medium, penicillin-streptomycin, heat inactivated fetal bovine serum, and D-PBS were purchased from Life Technologies, Grand Island, N.Y., USA. Odyssey blocking buffer, 800CW goat anti-rabbit IgG (H+L) antibody, and Licor Odyssey infrared scanner were purchased from Licor Biosciences, Lincoln, Nebr., USA. Symmetric di-methyl arginine antibody was purchased from EMD Millipore, Billerica, Mass., USA. 16% Paraformaldehyde was purchased from Electron Microscopy Sciences, Hatfield, Pa., USA.
Z-138 suspension cells were maintained in growth medium (RPMI 1640 supplemented with 10% v/v heat inactivated fetal bovine serum and 100 units/mL penicillin-streptomycin) and cultured at 37° C. under 5% CO2.
Cell Treatment, in Cell Western (ICW) for Detection of Symmetric Di-Methyl Arginine and DNA Content.
Z-138 cells were seeded in assay medium at a concentration of 50,000 cells per mL to a 384-well cell culture plate with 50 μL per well. Compound (100 nL) from 384 well source plates was added directly to 384 well cell plate. Plates were incubated at 37° C., 5% CO2 for 96 hours. After four days of incubation, 40 μL of cells from incubated plates were added to poly-D-lysine coated 384 well culture plates (BD Biosciences 356697). Plates were incubated at room temperature for 30 minutes then incubated at 37° C., 5% CO2 for 5 hours. After the incubation, 40 μL per well of 8% paraformaldehyde in PBS (16% paraformaldahyde was diluted to 8% in PBS) was added to each plate and incubated for 30 minutes. Plates were transferred to a Biotek 405 plate washer and washed 5 times with 100 μL per well of wash buffer (1×PBS with 0.1% Triton X-100 (v/v)). Next 30 μL per well of Odyssey blocking buffer were added to each plate and incubated 1 hour at room temperature. Blocking buffer was removed and 20 μL per well of primary antibody was added (symmetric di-methyl arginine diluted 1:100 in Odyssey buffer with 0.1% Tween 20 (v/v)) and plates were incubated overnight (16 hours) at 4° C. Plates were washed 5 times with 100 μL per well of wash buffer. Next 20 μL per well of secondary antibody was added (1:200 800CW goat anti-rabbit IgG (H+L) antibody, 1:1000 DRAQS (Biostatus limited) in Odyssey buffer with 0.1% Tween 20 (v/v)) and incubated for 1 hour at room temperature. The plates were washed 5 times with 100 μL per well wash buffer then 1 time with 100 μL per well of water. Plates were allowed to dry at room temperature then imaged on the Licor Odyssey machine which measures integrated intensity at 700 nm and 800 nm wavelengths. Both 700 and 800 channels were scanned.
First, the ratio for each well was determined by:
Each plate included fourteen control wells of DMSO only treatment (minimum inhibition) as well as fourteen control wells for maximum inhibition treated with 3 μM of a reference compound (Background wells). The average of the ratio values for each control type was calculated and used to determine the percent inhibition for each test well in the plate. Reference compound was serially diluted three-fold in DMSO for a total of nine test concentrations, beginning at 3 μM. Percent inhibition was determined and IC50 curves were generated using triplicate wells per concentration of compound.

Row | SMILES | EC50
1 | CN(C)c1ncccc1OCC(=O)NCC(O)CN1CCc2ccccc2C1 (stereo not drawn) [Compound A127] | 1000 to 10000 nM
2 | O=C(COc1cccc2cccnc12)NC[C@@H](O)CN1CCc2ccccc2C1 [Compound A45] | < 100 nM
3 | CS(=O)(=O)N1CCc2c(cccc2OCC(=O)NCC(O)CN2CCc3ccccc3C2)C1 (stereo not drawn) [Compound A102] | < 100 nM
4 | CN(C)c1cccc(OCC(=O)NCC(O)CN2CCc3ccccc3C2)c1 (stereo not drawn) [Compound A27] | 101 to 1000 nM
5 | O=C(COc1ccccc1-c1cc[nH]n1)NC[C@H](O)CN1CCc2ccccc2C1 [Compound A68] | 101 to 1000 nM
6 | O=C(CNc1ccccc1)NCC(O)CN1CCc2ccccc2C1 (stereo not drawn) [Compound A18] | 1000 to 10000 nM
7 | CN1CCN(S(=O)(=O)c2ccccc2OCC(=O)NCC(O)CN2CCc3ccccc3C2)CC1 (stereo not drawn) [Compound A108] | 101 to 1000 nM
8 | O=C(COc1ccccc1C1CCCNC1)NCC(O)CN1CCc2ccccc2C1 (stereo not drawn) [Compound A117] | 101 to 1000 nM
9 | O=C(COc1ccccc1S(=O)(=O)N1CCC(O)C1)NCC(O)CN1CCc2ccccc2C1 (stereo not drawn) [Compound A111] | < 100 nM
10 | C[C@@H](Oc1cccc2cccnc12)C(=O)NC[C@@H](O)CN1CCc2ccccc2C1 [Compound A74] | 101 to 1000 nM
11 | CN1CCCC(c2ccccc2OCC(=O)NCC(O)CN2CCc3ccccc3C2)C1 (stereo not drawn) [Compound A130] | 101 to 1000 nM
12 | O=C(COc1ccc2ncn(C3CCNCC3)c2c1)NCC(O)CN1CCc2ccccc2C1 (stereo not drawn) [Compound A70] | 101 to 1000 nM
13 | O=C(COc1ccccc1-c1cc[nH]n1)NCC(O)CN1CCc2ccccc2C1 (stereo not drawn) [Compound A50] | < 100 nM
14 | CS(=O)(=O)N1CCN(c2ccccc2OCC(=O)NCC(O)CN2CCc3ccccc3C2)CC1 (stereo not drawn) [Compound A106] | 101 to 1000 nM
15 | O=C(COc1cccc2c1CNCC2)NCC(O)CN1CCc2ccccc2C1 (stereo not drawn) [Compound A119] | 101 to 1000 nM
16 | CC(Oc1ccccc1S(C)(=O)=O)C(=O)NCC(O)CN1CCc2ccccc2C1 (stereo not drawn) [Compound A114] | 1000 to 10000 nM
17 | COc1ccc2cccc(OCC(=O)NC[C@@H](O)CN3CCc4ccccc4C3)c2n1 [Compound A98] | < 100 nM
18 | N#Cc1ccccc1OCC(=O)NCC(O)CN1CCc2ccccc2C1 (stereo not drawn) [Compound A17] | 101 to 1000 nM
19 | CN(C)c1ccccc1OCC(=O)NCC(O)CN1CCc2ccccc2C1 (stereo not drawn) [Compound A38] | < 100 nM
20 | O=C(COc1ccccc1C1CCNCC1)NCC(O)CN1CCc2ccccc2C1 (stereo not drawn) [Compound A103] | 101 to 1000 nM
21 | CS(=O)(=O)Nc1ccc(OCC(=O)NCC(O)CN2CCc3ccccc3C2)cc1 (stereo not drawn) [Compound A42] | 101 to 1000 nM

Row | SMILES | EC50
22 | CN(c1cccc(OCC(=O)NCC(O)CN2CCc3ccccc3C2)c1)S(C)(=O)=O (stereo not drawn) [Compound A142] | 101 to 1000 nM
23 | CN1CCC(n2ncc3cc(OCC(=O)NCC(O)CN4CCc5ccccc5C4)ccc32)C1 (stereo not drawn) [Compound A96] | 101 to 1000 nM
24 | CC(=O)Nc1ccccc1OCC(=O)NCC(O)CN1CCc2ccccc2C1 (stereo not drawn) [Compound A36] | 101 to 1000 nM
25 | COc1cccc(OCC(=O)NCC(O)CN2CCc3ccccc3C2)c1 (stereo not drawn) [Compound A20] | 101 to 1000 nM
26 | COc1ccccc1OCC(=O)NCC(O)CN1CCc2ccccc2C1 (stereo not drawn) [Compound A22] | 101 to 1000 nM
27 | C[C@@H](Oc1cccc2cccnc12)C(=O)NC[C@H](O)CN1CCc2ccccc2C1 [Compound A73] | < 100 nM
28 | O=C(COc1ccccc1)NC[C@H](O)CN1CCc2ccccc2C1 [Compound A32] | 101 to 1000 nM
29 | CN(C)c1ccc(OCC(=O)NCC(O)CN2CCc3ccccc3C2)cc1 (stereo not drawn) [Compound A35] | 101 to 1000 nM
30 | CC(=O)N1CCN(S(=O)(=O)c2ccccc2OCC(=O)NCC(O)CN2CCc3ccccc3C2)CC1 (stereo not drawn) [Compound A122] | 1000 to 10000 nM
31 | CC(=O)N1CCc2c(cccc2OCC(=O)NCC(O)CN2CCc3ccccc3C2)C1 (stereo not drawn) [Compound A101] | < 100 nM
32 | O=C(COc1ccccc1C1CCNC1)NCC(O)CN1CCc2ccccc2C1 (stereo not drawn) [Compound A116] | 1000 to 10000 nM
33 | Cn1cnc2cc(OCC(=O)NCC(O)CN3CCc4ccccc4C3)ccc21 (stereo not drawn) [Compound A46] | 101 to 1000 nM
34 | Cn1ncc2ccc(OCC(=O)NCC(O)CN3CCc4ccccc4C3)cc21 (stereo not drawn) [Compound A23] | 101 to 1000 nM
35 | NS(=O)(=O)c1ccccc1OCC(=O)NCC(O)CN1CCc2ccccc2C1 (stereo not drawn) [Compound A65] | 101 to 1000 nM
36 | CS(=O)(=O)Nc1cccc(OCC(=O)NCC(O)CN2CCc3ccccc3C2)c1 (stereo not drawn) [Compound A28] | 101 to 1000 nM
37 | CC(Oc1cccc2cccnc12)C(=O)NCC(O)CN1CCc2ccccc2C1 (stereo not drawn) [Compound A39] | < 100 nM
38 | CN1CCc2cccc(OCC(=O)NCC(O)CN3CCc4ccccc4C3)c2C1 (stereo not drawn) [Compound A120] | 1000 to 10000 nM
39 | COc1ccc(OCC(=O)NCC(O)CN2CCc3ccccc3C2)cc1 (stereo not drawn) [Compound A12] | 101 to 1000 nM
40 | CNS(=O)(=O)c1ccccc1OCC(=O)NCC(O)CN1CCc2ccccc2C1 (stereo not drawn) [Compound A123] | 101 to 1000 nM
41 | CC(=O)Nc1cccc(OCC(=O)NCC(O)CN2CCc3ccccc3C2)c1 (stereo not drawn) [Compound A31] | 101 to 1000 nM
42 | O=C(COc1cccc2c1OCCO2)NCC(O)CN1CCc2ccccc2C1 (stereo not drawn) [Compound A100] | < 100 nM

Row | SMILES | EC50
43 | CN(C)c1ccc2cccc(OCC(=O)NC[C@@H](O)CN3CCc4ccccc4C3)c2n1 [Compound A105] | 101 to 1000 nM
44 | O=C(COc1ccccc1N1CCOCC1)NCC(O)CN1CCc2ccccc2C1 (stereo not drawn) [Compound A49] | 101 to 1000 nM
45 | O=C(COc1cccc2cccnc12)NC[C@H](O)CN1CCc2ccccc2C1 [Compound A44] | 101 to 1000 nM
46 | CC(=O)Nc1ccc(OCC(=O)NCC(O)CN2CCc3ccccc3C2)cc1 (stereo not drawn) [Compound A21] | 101 to 1000 nM
47 | CC(Oc1ccccc1)C(=O)NCC(O)CN1CCc2ccccc2C1 (stereo not drawn) [Compound A19] | 101 to 1000 nM
48 | O=C(COc1cccc2ncc(=O)[nH]c12)NCC(O)CN1CCc2ccccc2C1 (stereo not drawn) [Compound A129] | 1000 to 10000 nM
49 | O=C(COc1cccc(F)c1)NCC(O)CN1CCc2ccccc2C1 (stereo not drawn) [Compound A7] | 101 to 1000 nM
50 | O=C(COc1ccccc1-c1ncc[nH]1)NCC(O)CN1CCc2ccccc2C1 (stereo not drawn) [Compound A137] | 1000 to 10000 nM
51 | O=C(COc1ccccc1F)NCC(O)CN1CCc2ccccc2C1 (stereo not drawn) [Compound A16] | 101 to 1000 nM
52 | Cc1cccc(OCC(=O)NCC(O)CN2CCc3ccccc3C2)c1 (stereo not drawn) [Compound A26] | 101 to 1000 nM
53 | CNC(=O)c1ccccc1OCC(=O)NCC(O)CN1CCc2ccccc2C1 (stereo not drawn) [Compound A112] | 101 to 1000 nM
54 | Cc1ccc(OCC(=O)NCC(O)CN2CCc3ccccc3C2)cc1 (stereo not drawn) [Compound A9] | 10000 to 50000 nM
55 | CC(C)(Oc1cccc2cccnc12)C(=O)NCC(O)CN1CCc2ccccc2C1 (stereo not drawn) [Compound A43] | 101 to 1000 nM
56 | O=C(COc1cccc2ccccc12)NCC(O)CN1CCc2ccccc2C1 (stereo not drawn) [Compound A66] | 101 to 1000 nM
57 | NC(=O)c1ccccc1OCC(=O)NCC(O)CN1CCc2ccccc2C1 (stereo not drawn) [Compound A29] | 101 to 1000 nM
58 | COc1ccc2cccc(OCC(=O)NC[C@H](O)CN3CCc4ccccc4C3)c2n1 [Compound A97] | 101 to 1000 nM
59 | CN(C)c1ccc2cccc(OCC(=O)NC[C@H](O)CN3CCc4ccccc4C3)c2n1 [Compound A104] | 1000 to 10000 nM
60 | CN1CCc2c(cccc2OCC(=O)NCC(O)CN2CCc3ccccc3C2)C1 (stereo not drawn) [Compound A99] | 101 to 1000 nM
61 | CN1CCC(c2ccccc2OCC(=O)NCC(O)CN2CCc3ccccc3C2)CC1 (stereo not drawn) [Compound A134] | 1000 to 10000 nM
62 | CS(=O)(=O)Nc1ccccc1OCC(=O)NCC(O)CN1CCc2ccccc2C1 (stereo not drawn) [Compound A53] | 101 to 1000 nM
63 | O=C(COc1ccccc1-c1cc[nH]n1)NC[C@@H](O)CN1CCc2ccccc2C1 [Compound A67] | < 100 nM
